The results in this text go back to US9029383B2, “Methods of treatment of skin ulcers” (The Trustees Of The University of Pennsylvania, priority 2007, dated 2015).

Assay [1] concerns DM/HC pigs (skin abscess). Kind of assay: Skin abscess occurrence in diabetic/hypercholesterolemic (DM/HC) pig model. Type of assay: in vivo. The settings on record: for Development of skin abscess over the treatment period: DM/HC pigs treated for 6 months; for Further or recurring abscess after initiation of daily inhibitor treatment in pigs that already had an abscess: pigs #948 and #963, daily single dose. The protocol: A diabetic/diabetic hypercholestrolemic pig model (DM/HC) was developed that mimics human-like diabetes and human-like atherosclerosis. Farm pigs weighing 25-30 kg and aged ˜4 months were made diabetic with a single intravenous injection of 125 mg/kg of streptozotocin (Sicor Pharmaceuticals, Irvine, Calif.). After stabilized for 1-2 weeks, the animals with elevated levels of plasma glucose (>150 mg/dl) were fed with atherogenic (high-fat) diet as shown in Table 1 (Animal Specialties, Quakertown, Pa.) to achieve a cholesterol level of approximately 250-800 mg/dl.
For the 0.5% cholesterol diet the components are similar with the exception of 0.5% cholesterol and 20% lard. The animals were Yorkshire pigs that were castrated males at the age of […] and were obtained from Archer Farms, Darlington, Md. These feeds were prepared by Animal Specialties and Provisions, LLC, Quakertown, Pa. USA.
On days 1-2, animals were fed normal chow, followed by on days 3-14 animals were fed a diet of 0.5% cholesterol, 2% lard and on day 14, cholesterol levels were measured and the diet adjusted accordingly to increase to 2% cholesterol, 10% lard if cholesterol is <300 mg/dl. Following induction of DM/HC, cholesterol was measured until cholesterol levels are stable between 300 and 800 mg/dl, and following cholesterol stabilization, cholesterol was measured monthly. If cholesterol levels were unstable following initial stabilization phase, the diet of the animal was returned to the initial two-week measurement schedule. Monthly cholesterol levels were determined, including levels of total cholesterol, LDL, HDL, VLDL and triglycerides.
(§1) At one month after stabilization of cholersterol at 250-800 mg/dl, the animals were randomized into two experimental groups, DM/HC (hyperglycemia and hypercholesterolemia) group with no treatment and treatment group (10 mg/kg/day of SB-480848, also referred to as 1-(N-(2-(diethylamino)ethyl)-N-(4-(4-trifluoromethylphenyl)benzyl)-aminocarbonylmethyl)-2-(4-fluorobenzyl)thio-5,6-trimethylenepyrimidin-4-one). The animals were then placed into two separate rooms with control animals in one room and treated animals in the other room in order to ensure that no drug would be found in the control animals. The animals were visually inspected twice daily, the visual inspections being between 8-10 hours apart, for skin abscess, especially in the leg and foot. To be considered an abscess, the minimal abscess size was 1 mm with redness in the surrounding area. When abscesses were detected, treatment was applied. Treatment comprise assessing the size and depth of abscess, draining and cleaning the abscess of dead tissue and cells, washing with Betadine, drying and bandaging with sterile dressing, and oral regime of antibiotics. Treatment was applied daily till the infection in the open sore was cleared (absence of pus) and the open sore healed by shrinkage in size and the opening was completely closed. Cultures of the abscess were carried out to determine the pathogen responsible for the infection. […]
Two diabetic/hypercholesterolemic groups were evaluated: 1. […] In addition blood cholesterol levels were maintained between 300 and 800 mg/dl in experimental animals, this range having been determined to provide a better test model. Blood cholesterol levels were monitored in all animals on a bimonthly basis, as shown in Table 4 and adjustments were made to the fat content of the feed accordingly, as shown in Table 2. […]

A short description of assay [2]: Body weight and behaviour of DM/HC pigs during the study period. Type of assay: in vivo, pig. The protocol: as §1

Entries after “also recorded” stand apart in the source; their conditions may differ.

Regarding `CCN(CC)CCN(Cc1ccc(-c2ccc(C(F)(F)F)cc2)cc1)C(=O)Cn1c(SCc2ccc(F)cc2)nc(=O)c2c1CCC2` [SB-480848, 1-(N-(2-(Diethylamino)ethyl)-N-(4-(4-trifluoromethylphenyl)benzyl)aminocarbonylmethyl)-2-(4-fluorobenzyl)thio-5,6-trimethylenepyrimidin-4-one], the “Development of skin abscess over the treatment period” value in assay [1] is “no pig developed any skin abscesses”; in assay [1] (listed as Lp-PLA2 inhibitor), “no one developed any abscess”. Besides, the “Further or recurring abscess after initiation of daily inhibitor treatment in pigs that already had an abscess” value in assay [1] was “No further abscess developed; also recorded: remained skin abscesses-free”; in assay [1] (listed as Lp-PLA2 inhibitor), “No further abscess developed”. Besides, in assay [1] (pigs #948 and #963 of the treated group, abscesses developed before start of inhibitor, standard wound care), the “Average healing time of treated abscesses” value is given as 1-2 weeks. For the same compound, the “Responsiveness and activity compared to control animals” value in assay [2] (observed during the study period) is listed as “more responsive to external stimuli”. The same compound registered a Weight in assay [2] (treated animals at end of study, from a baseline of 26.9 kg, control 50.9 kg from 30.3 kg) of 62.5 kg.
